In the assay the test system is CD2F1 mice, L1210 leukemia ip, survival T/C. Description: NCI In Vivo Anticancer Drug Screen. Data for tumor model L1210 Leukemia (intraperitoneal) in CD2F1 (CDF1) mice. To be noted: higher = longer survival. The method, boiled down:
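Each value reflects a quotient of treated over vehicle control outcomes in mice with a transplanted tumor.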

The mark [1] stands for this setting: endpoint: mean survival time, dose: 12.5 mg/kg/injection, schedule: Q01DX009 (ip), vehicle: water.
Where [2] appears, read: endpoint: mean survival time, dose: 25.0 mg/kg/injection, schedule: Q01DX009 (ip), vehicle: water.
Setting [3] is: endpoint: mean survival time, dose: 50.0 mg/kg/injection, schedule: Q01DX009 (ip), vehicle: water.
Setting [4] is: endpoint: mean survival time, dose: 100.0 mg/kg/injection, schedule: Q01DX009 (ip), vehicle: saline.
Setting [5] is: endpoint: mean survival time, dose: 100.0 mg/kg/injection, schedule: Q04DX003 (ip), vehicle: saline.
Where [6] appears, read: endpoint: mean survival time, dose: 200.0 mg/kg/injection, schedule: Q01DX009 (ip), vehicle: saline.
The mark [7] stands for this setting: endpoint: mean survival time, dose: 200.0 mg/kg/injection, schedule: Q04DX003 (ip), vehicle: saline.
Setting [8] is: endpoint: mean survival time, dose: 400.0 mg/kg/injection, schedule: Q04DX003 (ip), vehicle: saline.

Values joined by “and” are separate entries in the source; they are usually repeats but may differ in a detail not shown here. Equal entries are not always repeated. Toxic doses and inconclusive results are not listed.

For the compound `CC1(C)CC(OP(=O)(OC2CC(C)(C)N(O)C(C)(C)C2)N2CC2)CC(C)(C)N1O`, the T/C runs as follows: under setting [1], 102 % of control; under setting [2], 113 % of control and 104 % of control; under setting [3], 110 % of control; (endpoint: mean survival time, dose: 100.0 mg/kg/injection, schedule: Q01DX009 (ip), vehicle: water) 112 % of control.

On to `NNc1ncnc2c(C3OC(CO)C(O)C3O)[nH]nc12` (stereo unspecified), for which the T/C (endpoint: mean survival time, dose: 150.0 mg/kg/injection, schedule: Q01DX009 (ip), vehicle: saline sonified) is 155 % of control.

Take `O=c1[nH]cccc1O`: the T/C is 103 % of control and 104 % of control and 108 % of control (endpoint: median survival time, dose: 50.0 mg/kg/injection, schedule: Q01DX009 (ip), vehicle: saline with Tween-80); 102 % of control (endpoint: median survival time, dose: 62.5 mg/kg/injection, schedule: Q01DX009 (ip), vehicle: saline with Tween-80); 96 % of control (endpoint: median survival time, dose: 66.7 mg/kg/injection, schedule: Q03HX027 (ip), vehicle: saline with Tween-80); 113 % of control (endpoint: median survival time, dose: 125.0 mg/kg/injection, schedule: Q01DX009 (ip), vehicle: saline with Tween-80); 103 % of control (endpoint: median survival time, dose: 133.0 mg/kg/injection, schedule: Q03HX027 (ip), vehicle: saline with Tween-80); 116 % of control (endpoint: median survival time, dose: 250.0 mg/kg/injection, schedule: Q01DX009 (ip), vehicle: saline with Tween-80). For the same compound, the T/C (endpoint: median survival time, dose: 266.0 mg/kg/injection, schedule: Q03HX027 (ip), vehicle: saline with Tween-80) was 155 % of control.

With `CC(=O)N(/C=C\C=C\c1sc2ccccc2[n+]1C)c1ccccc1`, the T/C runs as follows: (endpoint: mean survival time, dose: 12.5 mg/kg/injection, schedule: Q01DX009 (ip), vehicle: other) 108 % of control; (endpoint: mean survival time, dose: 25.0 mg/kg/injection, schedule: Q01DX009 (ip), vehicle: other) 115 % of control.

As for `NC(CC(=O)c1cccc2oc3cc(=O)c4[nH]c(C(=O)O)cc(=O)c4c-3nc12)C(=O)O` (stereo unspecified), the T/C was 98 % of control (endpoint: mean survival time, dose: 50.0 mg/kg/injection, schedule: Q01DX001 (ip), vehicle: carboxymethylcellulose (CMC)); 95 % of control (endpoint: mean survival time, dose: 100.0 mg/kg/injection, schedule: Q01DX001 (ip), vehicle: carboxymethylcellulose (CMC)); 95 % of control (endpoint: mean survival time, dose: 200.0 mg/kg/injection, schedule: Q01DX001 (ip), vehicle: carboxymethylcellulose (CMC)); 101 % of control (endpoint: mean survival time, dose: 400.0 mg/kg/injection, schedule: Q01DX001 (ip), vehicle: carboxymethylcellulose (CMC)).

Regarding `O=c1[nH]c(SCc2ccccc2)nc(-c2ccc(Cl)cc2)c1CCO`, the T/C is 87 % of control (endpoint: mean survival time, dose: 100.0 mg/kg/injection, schedule: Q01DX009 (ip), vehicle: Klucel (hydroxypropylcellulose) (HPC)); 89 % of control (endpoint: mean survival time, dose: 200.0 mg/kg/injection, schedule: Q01DX009 (ip), vehicle: Klucel (hydroxypropylcellulose) (HPC)); 88 % of control (endpoint: mean survival time, dose: 400.0 mg/kg/injection, schedule: Q01DX009 (ip), vehicle: Klucel (hydroxypropylcellulose) (HPC)).

As to `CCS(=O)(=O)/C=C(\C#Cc1ccccc1)c1ccccc1`, the T/C (endpoint: mean survival time, dose: 50.0 mg/kg/injection, schedule: Q01DX009 (ip), vehicle: saline) is 90 % of control; the T/C under setting [4] is 91 % of control; the T/C under setting [5] was 102 % of control; the T/C under setting [6] was 91 % of control; the T/C under setting [7] was 102 % of control; the T/C under setting [8] was 98 % of control.

Consider `c1cc(NC2CCCCC2)ccc1CN1CCOCC1`, for which the T/C (endpoint: mean survival time, dose: 12.5 mg/kg/injection, schedule: Q01DX009 (ip), vehicle: saline + Tween-80 + alcohol) was 99 % of control and 100 % of control; the T/C (endpoint: mean survival time, dose: 25.0 mg/kg/injection, schedule: Q01DX009 (ip), vehicle: saline + Tween-80 + alcohol) was 99 % of control and 102 % of control; the T/C (endpoint: mean survival time, dose: 50.0 mg/kg/injection, schedule: Q01DX009 (ip), vehicle: saline + Tween-80 + alcohol) was 97 % of control and 100 % of control; the T/C (endpoint: mean survival time, dose: 100.0 mg/kg/injection, schedule: Q01DX009 (ip), vehicle: saline + Tween-80 + alcohol) was 99 % of control and 103 % of control; the T/C (endpoint: mean survival time, dose: 200.0 mg/kg/injection, schedule: Q01DX009 (ip), vehicle: saline + Tween-80 + alcohol) is 94 % of control and 100 % of control; the T/C (endpoint: mean survival time, dose: 400.0 mg/kg/injection, schedule: Q01DX009 (ip), vehicle: saline + Tween-80 + alcohol) was 97 % of control and 100 % of control.

Regarding `Nc1nc2c(ncn2-c2ccccc2Br)c(=O)[nH]1`, the T/C by setting is: (endpoint: mean survival time, dose: 75.0 mg/kg/injection, schedule: Q01DX001 (ip), vehicle: saline with Tween-80) 101 % of control; (endpoint: mean survival time, dose: 150.0 mg/kg/injection, schedule: Q01DX001 (ip), vehicle: saline with Tween-80) 100 % of control; (endpoint: mean survival time, dose: 300.0 mg/kg/injection, schedule: Q01DX001 (ip), vehicle: saline with Tween-80) 101 % of control.

Turning to `O=C(c1ccccc1CO)N1CCOCC1`, the T/C (endpoint: mean survival time, dose: 12.5 mg/kg/injection, schedule: Q04DX002 (ip), vehicle: saline) was 98 % of control; the T/C (endpoint: mean survival time, dose: 25.0 mg/kg/injection, schedule: Q04DX002 (ip), vehicle: saline) was 94 % of control; the T/C (endpoint: mean survival time, dose: 50.0 mg/kg/injection, schedule: Q04DX002 (ip), vehicle: saline) was 94 % of control.

`O=C(Nc1ccccc1C(=O)O)c1ccccc1`: the T/C (endpoint: mean survival time, dose: 25.0 mg/kg/injection, schedule: Q04DX003 (ip), vehicle: saline with Tween-80) was 106 % of control; the T/C (endpoint: mean survival time, dose: 50.0 mg/kg/injection, schedule: Q04DX003 (ip), vehicle: saline with Tween-80) is 101 % of control; the T/C (endpoint: mean survival time, dose: 100.0 mg/kg/injection, schedule: Q04DX003 (ip), vehicle: saline with Tween-80) was 98 % of control and 101 % of control.

`O=CN(O)CC(=O)O.[Ni]`: the T/C reads like this: (endpoint: mean survival time, dose: 12.5 mg/kg/injection, schedule: Q04DX003 (ip), vehicle: saline) 102 % of control; (endpoint: mean survival time, dose: 25.0 mg/kg/injection, schedule: Q04DX003 (ip), vehicle: saline) 102 % of control.

Take `O=C(O)CCCCCCCCC1CC(F)(F)C(F)(F)S1` (stereo unspecified): the T/C is 98 % of control (endpoint: mean survival time, dose: 100.0 mg/kg/injection, schedule: Q01DX009 (ip), vehicle: saline with Tween-80); 92 % of control (endpoint: mean survival time, dose: 200.0 mg/kg/injection, schedule: Q01DX009 (ip), vehicle: saline with Tween-80); 95 % of control (endpoint: mean survival time, dose: 400.0 mg/kg/injection, schedule: Q01DX009 (ip), vehicle: saline with Tween-80).

Regarding `O=[N+]([O-])C/C=C(/C=Nc1ccc(Cl)cc1)[N+](=O)[O-]`, the T/C reads like this: under setting [4], 101 % of control; under setting [5], 105 % of control; under setting [6], 102 % of control; under setting [7], 97 % of control; (endpoint: mean survival time, dose: 400.0 mg/kg/injection, schedule: Q01DX009 (ip), vehicle: saline) 96 % of control; under setting [8], 97 % of control.

On to `CC(C)(CCC(C)(C)NCCCN)NCCCN`, for which the T/C runs as follows: under setting [1], 94 % of control; under setting [2], 97 % of control; under setting [3], 109 % of control.

On to `COc1nc(NC2OCC(O)C(O)C2O)c(I)c(=O)n1C` (stereo unspecified), for which the T/C by setting is: (endpoint: median survival time, dose: 12.5 mg/kg/injection, schedule: Q01DX005 (ip), vehicle: saline with Tween-80) 101 % of control; (endpoint: median survival time, dose: 25.0 mg/kg/injection, schedule: Q01DX005 (ip), vehicle: saline with Tween-80) 100 % of control; (endpoint: median survival time, dose: 50.0 mg/kg/injection, schedule: Q01DX005 (ip), vehicle: saline with Tween-80) 100 % of control; (endpoint: median survival time, dose: 100.0 mg/kg/injection, schedule: Q01DX005 (ip), vehicle: saline with Tween-80) 101 % of control; (endpoint: median survival time, dose: 200.0 mg/kg/injection, schedule: Q01DX005 (ip), vehicle: saline with Tween-80) 100 % of control.
